According to BindingDB's records for doi:10.1016/j.bioorg.2015.10.006 (University of Karachi, 2015):

These compounds were tested against T1, Thymidine phosphorylase (Escherichia coli (strain SMS-3-5 / SECEC), UniProt B1LEI7) (assay: Thymidine Phosphorylase Inhibition Assay). Conditions: pH 7.
T1 sequence (B1LEI7 whole entry): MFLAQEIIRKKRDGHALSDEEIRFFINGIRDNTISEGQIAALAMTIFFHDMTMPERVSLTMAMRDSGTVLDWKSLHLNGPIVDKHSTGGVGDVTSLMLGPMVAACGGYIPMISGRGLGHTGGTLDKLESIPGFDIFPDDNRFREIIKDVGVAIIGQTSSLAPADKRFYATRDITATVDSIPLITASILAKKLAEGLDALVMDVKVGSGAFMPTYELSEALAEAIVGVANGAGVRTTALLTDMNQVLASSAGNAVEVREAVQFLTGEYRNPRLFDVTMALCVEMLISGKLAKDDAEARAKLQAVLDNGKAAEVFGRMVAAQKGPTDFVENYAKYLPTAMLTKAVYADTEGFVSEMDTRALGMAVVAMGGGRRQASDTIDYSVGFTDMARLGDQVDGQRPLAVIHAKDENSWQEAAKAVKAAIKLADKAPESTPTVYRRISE
Procedure: TP inhibition assay was performed spectrophotometrically. The method of Bera et al. was followed with slight modifications. Reaction mixture of 200 µL, contained 20 µL of enzyme (0.058 unit/well), 150 µL of potassium phosphate buffer (pH 7.0, 50 mM), and 10 µL of test compound (0.5 mM). The reaction mixture was then incubated for 10 min at 30 °C. […] Every experiment was run in triplicate. 7-Deazaxanthine was used as positive control.

Q: How did the IC50 turn out when `O=c1[nH]c(-c2ccc(O)cc2)nc2ccccc12` was run?
A: 234 µM

Q: With `O=c1[nH]c(-c2cccc(O)c2)nc2ccccc12` as the compound, how does the IC50 read?
A: 295 µM

Q: Which IC50 does the source give for `COc1ccc(-c2nc3ccccc3c(=O)[nH]2)cc1O` here?
A: 169 µM

Q: For `CCOc1cc(-c2nc3ccccc3c(=O)[nH]2)ccc1O`, which IC50 is on record?
A: 256 µM

Q: For `O=c1[nH]c(-c2ccc(O)c(O)c2)nc2ccccc12`, which IC50 is on record?
A: 42.9 µM

Q: For `O=c1[nH]c(-c2cc(O)ccc2O)nc2ccccc12`, which IC50 is on record?
A: 59.5 µM
